Legend:
CD8+ T cells [1] = experiment: T cell memory formation, OVA MHC class I epitope peptide (SIINFEKL) stimulation of OT-I splenocytes; assay type: cell-based, mouse; conditions: 5 μg/ml SIINFEKL peptide plus Compound 107 0.01-10 μM, 48 hrs, peptide alone 32%
Method: (§1) Spleens were isolated from OT-I and processed into a single cell suspension. Red blood cells (RBCs) were lysed using RBC lysis solution. Splenocytes (2×10^6 cells/ml) were cultured in complete media (10% FBS in DMEM) and stimulated with 5 μg/ml OVA MHC class I epitope peptide (SIINFEKL, SEQ ID NO:1) in the absence or presence of 0.01 μM, 0.1 μM, 1.0 μM, 3.0 μM, or 10 μM of MNK-specific inhibitor, Compound 107, for 48 hrs. For the mixed lymphocyte reaction (MLR) assay, peritoneal macrophages were first isolated from BALB/c mice by peritoneal wash with chilled DMEM media. This lavage was plated in a 24 well plate for 2 h at 37° C. After 2 h, non-adherent cells were washed to remove non-macrophage populations. The adherent cells (primarily peritoneal macrophages) were cultured in complete media in the absence or presence of the indicated Compound 107 concentrations for 24 h. After 24 h, panned splenocytes (enriched in T cells) from C57BL/6 mice were added to the macrophage culture in the absence or presence of Compound 107 for an additional 4 days.
(§2) The cells were harvested from the MLR, washed and stained with Horizon™ FVS, anti-CD4, anti-CD8, anti-CD44 and anti-CD62L antibodies. The cells were analyzed by flow cytometry (Attune NXT, ThermoFisher) and FlowJo analysis software (FlowJo LLC, Ashland Oreg.). CD8+ and CD4+ cells populations were analyzed for expression of CD44 and CD62L. […]

CD8+ T cells [2] = experiment: T cell memory formation, mixed lymphocyte reaction (MLR) assay, CD8+ cells; assay type: cell-based, mouse
Method: as §1, §2

CD4+ T cells = experiment: T cell memory formation, mixed lymphocyte reaction (MLR) assay, CD4+ cells; assay type: cell-based, mouse; conditions: MLR in presence of Compound 107
Method: as §1, §2

[3] = system: OT-I memory T cells (CD45.2+CD8+CD44+) in spleen; experiment: Long-term memory/recall response after adoptive transfer of OT-I T cells; assay type: in vivo, B6.SJL mice
Method: Spleens were isolated from OT-I mice and CD3^+ T cells were isolated using the MojoSort Mouse CD3 T Cell Isolation Kit (Biolegend, San Diego Calif.). OT-I T cells (2×10^6 cells) were adoptively transferred into B6.SJL mice through intravenous tail vein injection. Mice were dosed orally with vehicle or 1 mg/kg Compound 107 24 hrs later and vaccinated subcutaneously with SIINFEKL peptide (SEQ ID NO:1) (50 μg/mouse). Mice were dosed with vehicle or 1 mg/kg Compound 107 for an additional six days. On day 21 post-immunization, selected groups were boosted with an additional injection of SIINFEKL peptide (SEQ ID NO:1) (50 μg/mouse). On day 24, spleens were harvested from animals and processed into a single cell suspension for flow cytometry analysis. Cells were stained with BD Horizon Fixable Viability Stain and antibodies against CD45.2, CD8, and CD44. Cells were analyzed using an Attune NXT flow cytometer and data was processed using FlowJo 10.1 software.

E.G7-OVA tumors = experiment: In vivo tumor growth inhibition; design: species or system athymic nude mice
Method: E.G7-OVA tumor cells (2×10^6) were implanted subcutaneously into athymic nude mice. On day 7 post-implant, tumors were measured (˜192 mm^3) and tumor-bearing animals were randomized into 6 groups. T cells purified from OT-I mouse spleens were cultured for 48 h in vitro with DMSO/PBS control alone, 50 μg/ml SIINFEKL peptide (SEQ ID NO:1) alone, 1 μM Compound 107, or the combination of 50 μg/ml SIINFEKL (SEQ ID NO:1) and 1 μM Compound 107. The in vitro treated OT-I T cells were adoptively transferred into animals from the appropriate groups (2×10^6 cells/mouse) by tail vein injection. Animals were dosed in vivo with vehicle or 1 mg/kg Compound 107 and tumor size and body weight was monitored during the course of the study.

Compound: Cc1cc(Nc2cc(N)ncn2)c(=O)n2c1C(=O)NC21CCCCC1.Cl [Compound 107]
- distribution of CD8+ T cells in the TCM pool (CD44high CD62Lhigh) (CD8+ T cells [1]): 36-41%
- pool of TCM CD8+ T cells (CD8+ T cells [2]; MLR in presence of Compound 107, MLR alone 15%): 20-29%
- TEM pool of CD8+ T cells (CD8+ T cells [2]; MLR, 0.01-3 μM of Compound 107, MLR alone 16%): 8-11%
- pool of TCM CD4+ T cells (CD4+ T cells; MLR alone 21%): 28-39%
- TEM CD4+ T cell pool (CD4+ T cells; MLR alone 25%): 16-23%
- percentage of OT-I memory T cells in spleen (% of total lymphocytes) ([3]; immunized and boosted with SIINFEKL, 1 mg/kg oral during immunization, day 24, vs vehicle-treated immunized/boosted group): significantly increased
- population of OT-I memory T cells in spleen (% of total lymphocytes) ([3]; un-immunized animals, 1 mg/kg oral, day 24): unaffected
- tumor growth inhibition (TGI) (E.G7-OVA tumors; OT-I cells pre-treated in vitro with SIINFEKL and Compound 107, animals also dosed in vivo with 1 mg/kg Compound 107, compared with the vehicle-dosed group (55%)): did not show any further increase in TGI
- tumor growth inhibition (TGI) (E.G7-OVA tumors; adoptive transfer of SIINFEKL-pre-treated OT-I cells, animals dosed 1 mg/kg Compound 107 daily, 8 days post-transfer): 45%
- tumor growth inhibition (TGI) (E.G7-OVA tumors; no adoptive transfer of OT-I T cells, 1 mg/kg Compound 107 daily vs vehicle, 8 days post-transfer): 16%
- tumor growth inhibition (TGI) (E.G7-OVA tumors; vehicle-dosed animals, OT-I cells pre-treated in vitro with SIINFEKL and 1 μM Compound 107, 8 days post-transfer): 55%
